Results as given in paper PMC9231089, “Sorafenib Chemosensitization by Caryophyllane Sesquiterpenes in Liver, Biliary, and Pancreatic Cancer Cells: The Role of STAT3/ABC Transporter Axis” (Pharmaceutics, 2022).
Structures can show the parent of a compound that is named as a salt. Blank lines part the entries; values can stand above or below the compound they belong to.

What was measured:
Bx-PC3 cells = experiment: Wound healing assay (cell migration); assay type: cell-based, human; conditions: for increase of wound area: substance in combination with sorafenib 10 µg/mL, reference and time not stated
Protocol: To evaluate the effect of caryophyllane sesquiterpenes, both alone and in combination with sorafenib, on the cell migration rate, the wound healing assay was performed. Bx-PC3 cells were seeded in 24-well plate at a density of 2.5 × 10^5 cells/well. After 24 h, the wound was created by scratching the well bottom with a 100 μL pipette tip, then the cells were treated under the scheduled conditions and images were captured at 0, 4, and 72 h using a Cytation 1 Cell Imaging Multi-Mode Reader. […] Results were expressed as wound area percentage with respect to that of the same well at zero time. The positive controls were also included.

phospho(Tyr705)-STAT3 = experiment: Western blotting of STAT3 phosphorylation in Bx-PC3 cells; assay type: cell-based, human; conditions: for increase of STAT3 phosphorylation at tyrosine 705: substance alone, sorafenib and sesquiterpenes 10 μg/mL, verapamil/MK571 1 μg/mL, normalized to total STAT3; for reduction of phospho(Tyr705)-STAT3 with respect to sorafenib: substance in combination with sorafenib 10 μg/mL
Protocol: (§1) Suitable vehicle controls were also included.
Confluent cells were seeded in 6-well plates (5 × 10^5 cells/well), treated as described above, then harvested by centrifugation and washed in PBS. After lysis with a suitable buffer, the Western blotting analysis was carried out, according to previously published methods. […] The levels of phospho(Tyr705)-STAT3 were normalized against total STAT3 ones.

Bx-PC3 [1] = experiment: Combination assay with sorafenib (MTT), Bx-PC3; assay type: cell-based, human;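 for increase of sorafenib cytotoxicity in combination: percent increase of sorafenib cell viability inhibition versus sorafenib alone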
Protocol: as §1
(§2) The type of interaction (synergistic, additive, or antagonistic) among sorafenib and test substances or positive controls was evaluated by measuring the reversal ratio value (RR), combination index (CI), and isobolographic analysis (IB), as previously described.

Mz-ChA-1 [2] = experiment: Combination assay with sorafenib (MTT), Mz-ChA-1; assay type: cell-based, human;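 for increase of sorafenib cytotoxicity in combination: percent increase of sorafenib cell viability inhibition versus sorafenib alone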
Protocol: as §1, §2

HepG2 [3] = experiment: Combination assay with sorafenib (MTT), HepG2; assay type: cell-based, human; conditions: for increase of sorafenib cytotoxicity in combination: verapamil/MK571 1 µg/mL or sesquiterpenes 10 µg/mL;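 for increase of sorafenib cytotoxicity in combination: percent increase of sorafenib cell viability inhibition versus sorafenib alone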
Protocol: as §1, §2

Pgp = experiment: Immunofluorescence analysis in Bx-PC3 cells, Pgp; assay type: cell-based, human
Protocol: as §1
(§3) The analysis was performed according to previously published methods. Confluent cells were seeded in 24-well plates (2 × 10^4 cells/well), allowed to adhere overnight, then treated as described above. After treatment, cells were fixed in pure methanol and washed with 4% bovine serum albumin (BSA) and PBS + Tween 20 (PBS-T) for 1 h. […] The expression and localization of Pgp, MRP1, and MRP2 pumps into cells were analyzed by using a Cytation 1 Cell Imaging Multimode Reader (Biotech, USA).

Mz-ChA-1 [4] = experiment: MTT cytotoxicity assay, substances alone, Mz-ChA-1; assay type: cell-based, human; conditions: Mz-ChA-1
Protocol: as §1
(§4) The effect of the treatments on cell viability was measured by the MTT assay as previously described. A higher than 30% reduction of cell viability was considered as a significant cytotoxic effect.

MRP2 [5] = experiment: RT-qPCR gene expression in Bx-PC3 cells, MRP2; conditions: substance in combination with sorafenib, given for MRP1 and MRP2 together
Protocol: (§5) Confluent cells were treated with the test substances, both alone or in combination with the anticancer drug, for 4 h, then washed and incubated for a further 72 h (Figure 1), according to previously published protocols [20]. […] Suitable vehicle controls were also included.
(§6) The results of mRNA abundance for the targeted genes in each sample were normalized on the basis of GAPDH (Bio-Rad, Hercules, CA, USA) mRNA. Data are expressed as 2^−ΔCt, calculated using the CFX Manager software (Bio-Rad).

[6] = system: noncancerous H69 cholangiocytes; experiment: Combination assay with sorafenib (MTT), tolerability in H69; assay type: cell-based, human; conditions: sesquiterpene 10 μg/mL combined with sorafenib (protective effect at sorafenib 10 μg/mL)
Protocol: as §1, §2

HepG2 [7] = experiment: MTT cytotoxicity assay, substances alone, HepG2; assay type: cell-based, human; conditions: HepG2
Protocol: as §1, §4

MRP1 [8] = experiment: Immunofluorescence analysis in Bx-PC3 cells, MRP1; assay type: cell-based, human; conditions: substance 10 µg/mL in combination with sorafenib 10 µg/mL
Protocol: as §1, §3

MRP1/2 [9] = experiment: ABC-mediated drug efflux assay, calcein-AM accumulation, Mz-ChA-1 cells; assay type: cell-based, human; conditions: 2 h pre-treatment, sesquiterpenes 10 μg/mL, vs control
Protocol: (§7) Fluorescence was measured at excitation and emission wavelengths of 485 nm and 535 nm for both probes, using a Cytation 1 Cell Imaging Multimode Reader (Biotech, Santa Clara, CA, USA). Results were normalized to viable cells and expressed as percentage of the negative control.

MRP1 [10] = experiment: RT-qPCR gene expression in Bx-PC3 cells, MRP1; assay type: cell-based, human; conditions: substance in combination with sorafenib, given for MRP1 and MRP2 together
Excerpt: as §1

[11] = system: noncancerous H69 cholangiocytes; experiment: MTT cytotoxicity assay (tolerability), substances alone, H69; assay type: cell-based, human; conditions: Homo sapiens; H69 noncancerous cholangiocytes; substance alone; 4 h exposure + 72 h recovery; read-out: IC50 (CL)
Protocol: as §1, §4

MRP1/2 [12] = experiment: ABC-mediated drug efflux assay, calcein-AM accumulation, Bx-PC3 cells; assay type: cell-based, human; conditions: 2 h pre-treatment, sesquiterpenes 10 μg/mL, MK571 1 μg/mL, vs control
Protocol: as §7

MRP2 [13] = experiment: Immunofluorescence analysis in Bx-PC3 cells, MRP2; assay type: cell-based, human
Protocol: as §1, §3

[14] = set-up: method as in PMID 33081075; conditions: European Food Safety Authority; cited from earlier work
MDR1 = experiment: RT-qPCR gene expression in Bx-PC3 cells, MDR1
Protocol: as §5, §6

MRP1/2 [15] = experiment: ABC-mediated drug efflux assay, calcein-AM accumulation, HepG2 cells; assay type: cell-based, human; conditions: 2 h pre-treatment, sesquiterpenes 10 μg/mL, vs control
Protocol: as §7

Bx-PC3 [16] = experiment: MTT cytotoxicity assay, substances alone, Bx-PC3; assay type: cell-based, human
Protocol: as §1, §4

SMILES: COc1ccc(CCN(C)CCCC(C#N)(c2ccc(OC)c(OC)c2)C(C)C)cc1OC (centres unmarked) [Verapamil, verapamil hydrochloride, reference compound]
increase of wound area (Bx-PC3 cells): lowered the anti-migration effect of sorafenib
increase of STAT3 phosphorylation at tyrosine 705 (phospho(Tyr705)-STAT3): 1.1 fold
reduction of phospho(Tyr705)-STAT3 with respect to sorafenib (phospho(Tyr705)-STAT3): lower reduction
reduction of sorafenib IC50 in the presence of the substance (Bx-PC3 [1]): ~2 fold
reduction of sorafenib IC50 in the presence of the substance (Mz-ChA-1 [2]): 1.5 fold
reduction of sorafenib IC50 in the presence of the substance (HepG2 [3]): approximately 3 fold

reduction of sorafenib IC50 in the presence of the substance (Bx-PC3 [1]): 5 fold
reduction of sorafenib IC50 in the presence of the substance (HepG2 [3]): approximately 2.9 fold
SMILES: C=C1CC/C=C(\C)CC[C@@H]2[C@@H]1CC2(C)C [β-Caryophyllene, β-caryophyllene]
effect on Pgp expression (immunofluorescence) (Pgp; substance alone, sorafenib and sesquiterpenes 10 µg/mL, verapamil 1 µg/mL): did not affect
reduction of Pgp expression compared to control (Pgp; substance in combination with sorafenib 10 μg/mL): ~1.9 fold
wound area / cell migration after 72 h (Bx-PC3 cells; substance alone, sesquiterpenes 10 µg/mL, verapamil/MK571 1 µg/mL): almost complete closure of wound area
increase of wound area (Bx-PC3 cells): ~4.1 fold
IC50 (Mz-ChA-1 [4]; Homo sapiens, substance alone, 4 h exposure + 72 h recovery): 62.7 µg/mL
IC50 lower with respect to sorafenib (Mz-ChA-1 [4]): approximately 1.2 fold
higher cytotoxicity with respect to β-caryophyllene oxide (Mz-ChA-1 [4]): approximately 1.5 fold
inhibition of cell viability (Mz-ChA-1 [4]; 50 µg/mL): 35%
inhibition of cell viability (Mz-ChA-1 [4]; 250 µg/mL): 96%
increase of STAT3 phosphorylation at tyrosine 705 (phospho(Tyr705)-STAT3): approximately 3 fold
reduction of phospho(Tyr705)-STAT3 with respect to sorafenib (phospho(Tyr705)-STAT3): 2.1 fold
reduction of MRP2 gene expression (MRP2 [5]): 4 fold
effect on sorafenib cytotoxicity in noncancerous cells [6]: slight protective effects
IC50 higher than that of sorafenib (HepG2 [7]): 1.6 fold
reduction of MRP1 expression with respect to sorafenib (MRP1 [8]): 1.8 fold
increase of calcein-AM accumulation (MRP1/2 [9]): 1.3 fold
combination index (CI) with sorafenib (Bx-PC3 [1]; CI lower than 1 = synergistic): 0.46
increase of sorafenib cytotoxicity in combination (Bx-PC3 [1]; sesquiterpenes 10 µg/mL, sorafenib concentration not stated (Figure 3F)): 56%
reduction of MRP1 gene expression (MRP1 [10]): 4 fold
CC50 [11]: 67 µg/mL
increase of calcein-AM accumulation (MRP1/2 [12]): 1.9 fold
reduction of MRP2 expression with respect to sorafenib (MRP2 [13]; substance 10 µg/mL in combination with sorafenib 10 µg/mL): 1.3 fold
increase of MRP2 expression (immunofluorescence) (MRP2 [13]; substance alone, 10 µg/mL): 1.4 fold
reduction of sorafenib IC50 in the presence of the substance (Mz-ChA-1 [2]): approximately 1.7 fold
combination index (CI) with sorafenib (Mz-ChA-1 [2]; CI lower than 1 = synergistic): 0.74
increase of sorafenib cytotoxicity in combination (Mz-ChA-1 [2]; sorafenib 10 µg/mL, verapamil/MK571 1 µg/mL or sesquiterpenes 10 µg/mL): 19%
increase of sorafenib cytotoxicity in combination (Mz-ChA-1 [2]; sorafenib 50 µg/mL, sesquiterpenes 10 µg/mL): 17%
combination index (CI) with sorafenib (HepG2 [3]; CI lower than 1 = synergistic): 0.47
increase of sorafenib cytotoxicity in combination (HepG2 [3]; sorafenib 1 µg/mL): 5%
increase of sorafenib cytotoxicity in combination (HepG2 [3]; sorafenib 10 µg/mL): approximately 33%
considered safe up to (approved as flavoring) [14]: ≤ 222 mg/kg/die
increase of MDR1 gene expression with respect to control (MDR1; substance alone, 4 h exposure + 72 h recovery): 2.7 fold
downregulation of MDR1 gene with respect to sorafenib alone (MDR1; substance in combination with sorafenib): 1.9 fold
increase of calcein-AM accumulation (MRP1/2 [15]): 1.2 fold
IC50 higher than that of sorafenib (Bx-PC3 [16]): comparable
higher cytotoxicity with respect to β-caryophyllene oxide (Bx-PC3 [16]): ~1.8 fold
inhibition of cell viability (Bx-PC3 [16]; 50 µg/mL): 70%
inhibition of cell viability (Bx-PC3 [16]; 250 µg/mL): 95%
IC50 (Bx-PC3 [16]; Homo sapiens, BXPC-3, substance alone, 4 h exposure + 72 h recovery): 36.3 µg/mL
